Assay results: ChEMBL document CHEMBL1136439, “Synthesis and bioactivities of nitronyl nitroxide and RGD containing pseudopeptides” (2003)
Where a SMILES comes first, the peptide text is derived from it. The star is where a group is joined. X1 = CC1(C)N(O)C(c2ccc(OCC(=O)*)cc2)=[N+]([O-])C1(C)C

Species on record: Oryctolagus cuniculus
Assay: Maximum rate of ADP induced platelet aggregation was determined in rabbit blood at a dose of 10-6 mol/L (in vitro)
Format: functional

Structure (SMILES) | Am
CC1(C)N(O)C(c2ccc(OCC(=O)N[C@@H](CCCN=C(N)N)C(=O)NCC(=O)N[C@@H](CC(=O)O)C(=O)N[C@@H](CO)C(=O)O)cc2)=[N+]([O-])C1(C)C (X1-RGDS-OH) | 40.05%
CC(C)[C@H](NC(=O)[C@H](CC(=O)O)NC(=O)CNC(=O)[C@@H](N)CCCNC(=N)N)C(=O)O (H-RGDV-OH) | 28.9%
CC(C)[C@H](NC(=O)[C@H](CC(=O)O)NC(=O)CNC(=O)[C@H](CCCN=C(N)N)NC(=O)COc1ccc(C2=[N+]([O-])C(C)(C)C(C)(C)N2O)cc1)C(=O)O (X1-RGDV-OH) | 24.99%
CC(=O)Oc1ccccc1C(=O)O [ASPIRIN] | 42.58%

Species on record: Rattus norvegicus
Assay: Compound tested for inhibition of Ach-induced vasorelaxation was determined in rat aortic strips
Format: functional, Aorta
Parameters: concentration or dose not given beside the values

Structure (SMILES) | Inhibition
CC1(C)N(O)C(c2ccc(OCC(=O)N[C@@H](CCCN=C(N)N)C(=O)NCC(=O)N[C@@H](CC(=O)O)C(=O)N[C@@H](CO)C(=O)O)cc2)=[N+]([O-])C1(C)C (X1-RGDS-OH) | 88.9%
CC(C)[C@H](NC(=O)[C@H](CC(=O)O)NC(=O)CNC(=O)[C@@H](N)CCCNC(=N)N)C(=O)O (H-RGDV-OH) | 2.4%
CC(C)[C@H](NC(=O)[C@H](CC(=O)O)NC(=O)CNC(=O)[C@H](CCCN=C(N)N)NC(=O)COc1ccc(C2=[N+]([O-])C(C)(C)C(C)(C)N2O)cc1)C(=O)O (X1-RGDV-OH) | 91.2%

Species on record: Oryctolagus cuniculus
Assay: Maximum rate of PAF induced platelet aggregation was determined in rabbit blood at a dose of 10-7 mol/L (in vitro)
Format: functional

Structure (SMILES) | Am
CC1(C)N(O)C(c2ccc(OCC(=O)N[C@@H](CCCN=C(N)N)C(=O)NCC(=O)N[C@@H](CC(=O)O)C(=O)N[C@@H](CO)C(=O)O)cc2)=[N+]([O-])C1(C)C (X1-RGDS-OH) | 52.1%
CC(C)[C@H](NC(=O)[C@H](CC(=O)O)NC(=O)CNC(=O)[C@@H](N)CCCNC(=N)N)C(=O)O (H-RGDV-OH) | 52.66%
CC(C)[C@H](NC(=O)[C@H](CC(=O)O)NC(=O)CNC(=O)[C@H](CCCN=C(N)N)NC(=O)COc1ccc(C2=[N+]([O-])C(C)(C)C(C)(C)N2O)cc1)C(=O)O (X1-RGDV-OH) | 50.88%
CC(=O)Oc1ccccc1C(=O)O [ASPIRIN] | 53.42%

Species on record: Oryctolagus cuniculus
Assay: Maximum rate of PAF induced platelet aggregation was determined in rabbit blood at a dose of 10-5 mol/L (in vitro)
Format: functional

Structure (SMILES) | Am
CC1(C)N(O)C(c2ccc(OCC(=O)N[C@@H](CCCN=C(N)N)C(=O)NCC(=O)N[C@@H](CC(=O)O)C(=O)N[C@@H](CO)C(=O)O)cc2)=[N+]([O-])C1(C)C (X1-RGDS-OH) | 22.05%
CC(C)[C@H](NC(=O)[C@H](CC(=O)O)NC(=O)CNC(=O)[C@@H](N)CCCNC(=N)N)C(=O)O (H-RGDV-OH) | 20.5%
CC(C)[C@H](NC(=O)[C@H](CC(=O)O)NC(=O)CNC(=O)[C@H](CCCN=C(N)N)NC(=O)COc1ccc(C2=[N+]([O-])C(C)(C)C(C)(C)N2O)cc1)C(=O)O (X1-RGDV-OH) | 20.45%
CC(=O)Oc1ccccc1C(=O)O [ASPIRIN] | 29.99%

Species on record: Oryctolagus cuniculus
Assay: Maximum rate of PAF induced platelet aggregation was determined in rabbit blood at a dose of 10-6 mol/L (in vitro)
Format: functional

Structure (SMILES) | Am
CC1(C)N(O)C(c2ccc(OCC(=O)N[C@@H](CCCN=C(N)N)C(=O)NCC(=O)N[C@@H](CC(=O)O)C(=O)N[C@@H](CO)C(=O)O)cc2)=[N+]([O-])C1(C)C (X1-RGDS-OH) | 35.11%
CC(C)[C@H](NC(=O)[C@H](CC(=O)O)NC(=O)CNC(=O)[C@@H](N)CCCNC(=N)N)C(=O)O (H-RGDV-OH) | 35.11%
CC(C)[C@H](NC(=O)[C@H](CC(=O)O)NC(=O)CNC(=O)[C@H](CCCN=C(N)N)NC(=O)COc1ccc(C2=[N+]([O-])C(C)(C)C(C)(C)N2O)cc1)C(=O)O (X1-RGDV-OH) | 33.22%
CC(=O)Oc1ccccc1C(=O)O [ASPIRIN] | 36.98%

Species on record: Oryctolagus cuniculus
Assay: Maximum rate of ADP induced platelet aggregation was determined in rabbit blood at a dose of 10-7 mol/L (in vitro)
Format: functional

Structure (SMILES) | Am
CC1(C)N(O)C(c2ccc(OCC(=O)N[C@@H](CCCN=C(N)N)C(=O)NCC(=O)N[C@@H](CC(=O)O)C(=O)N[C@@H](CO)C(=O)O)cc2)=[N+]([O-])C1(C)C (X1-RGDS-OH) | 51.46%
CC(C)[C@H](NC(=O)[C@H](CC(=O)O)NC(=O)CNC(=O)[C@@H](N)CCCNC(=N)N)C(=O)O (H-RGDV-OH) | 50.06%
CC(C)[C@H](NC(=O)[C@H](CC(=O)O)NC(=O)CNC(=O)[C@H](CCCN=C(N)N)NC(=O)COc1ccc(C2=[N+]([O-])C(C)(C)C(C)(C)N2O)cc1)C(=O)O (X1-RGDV-OH) | 49.98%
CC(=O)Oc1ccccc1C(=O)O [ASPIRIN] | 54.89%

What follows are molecules tested on Rattus norvegicus (assay: Effect on the dry thrombus weight in male wistar rat was determined(in vivo)).
Format: functional

Structure (SMILES) | Activity
CC1(C)N(O)C(c2ccc(OCC(=O)N[C@@H](CCCN=C(N)N)C(=O)NCC(=O)N[C@@H](CC(=O)O)C(=O)N[C@@H](CO)C(=O)O)cc2)=[N+]([O-])C1(C)C (X1-RGDS-OH) | 5.08
CC(C)[C@H](NC(=O)[C@H](CC(=O)O)NC(=O)CNC(=O)[C@@H](N)CCCNC(=N)N)C(=O)O (H-RGDV-OH) | 5.13
CC(C)[C@H](NC(=O)[C@H](CC(=O)O)NC(=O)CNC(=O)[C@H](CCCN=C(N)N)NC(=O)COc1ccc(C2=[N+]([O-])C(C)(C)C(C)(C)N2O)cc1)C(=O)O (X1-RGDV-OH) | 4.07
CC(=O)Oc1ccccc1C(=O)O [ASPIRIN] | 3.99

Species on record: Oryctolagus cuniculus
Assay: Maximum rate of ADP induced platelet aggregation was determined in rabbit blood at a dose of 10-5 mol/L (in vitro)
Format: functional

Structure (SMILES) | Am
CC1(C)N(O)C(c2ccc(OCC(=O)N[C@@H](CCCN=C(N)N)C(=O)NCC(=O)N[C@@H](CC(=O)O)C(=O)N[C@@H](CO)C(=O)O)cc2)=[N+]([O-])C1(C)C (X1-RGDS-OH) | 16.91%
CC(C)[C@H](NC(=O)[C@H](CC(=O)O)NC(=O)CNC(=O)[C@@H](N)CCCNC(=N)N)C(=O)O (H-RGDV-OH) | 12.07%
CC(C)[C@H](NC(=O)[C@H](CC(=O)O)NC(=O)CNC(=O)[C@H](CCCN=C(N)N)NC(=O)COc1ccc(C2=[N+]([O-])C(C)(C)C(C)(C)N2O)cc1)C(=O)O (X1-RGDV-OH) | 11.85%
CC(=O)Oc1ccccc1C(=O)O [ASPIRIN] | 30.01%

What follows are molecules tested on Rattus norvegicus (assay: Effect on the wet thrombus weight in male wistar rat was determined(in vivo)).
Format: functional
Parameters: unit not given beside the values

Structure (SMILES) | Activity
CC1(C)N(O)C(c2ccc(OCC(=O)N[C@@H](CCCN=C(N)N)C(=O)NCC(=O)N[C@@H](CC(=O)O)C(=O)N[C@@H](CO)C(=O)O)cc2)=[N+]([O-])C1(C)C (X1-RGDS-OH) | 32.09
CC(C)[C@H](NC(=O)[C@H](CC(=O)O)NC(=O)CNC(=O)[C@@H](N)CCCNC(=N)N)C(=O)O (H-RGDV-OH) | 32.62
CC(C)[C@H](NC(=O)[C@H](CC(=O)O)NC(=O)CNC(=O)[C@H](CCCN=C(N)N)NC(=O)COc1ccc(C2=[N+]([O-])C(C)(C)C(C)(C)N2O)cc1)C(=O)O (X1-RGDV-OH) | 29.49
CC(=O)Oc1ccccc1C(=O)O [ASPIRIN] | 28.11
